Data published in patent publication US20140235616A1, “PYRAZOLOQUINOLINONE DERIVATIVES, PREPARATION THEREOF AND THERAPEUTIC USE THEREOF” (SANOFI, priority 2011, published 2014).

Target: T1, human MetAP2 (Homo sapiens, UniProt P50579)
T1 construct: made in house; host or cells: Sf9 insect cells (baculovirus)
Experiment: MetAP2 enzymatic screening test (isolated enzyme, Met-Pro-Arg-pNa substrate, absorbance at 405 nm)
Format: biochemical
Settings: read-out: % inhibition hMETAP2 at 100 nM
Procedure: The compounds according to the invention underwent biochemical studies in order to determine their capacity to inhibit the enzyme methionine-aminopeptidase2 (enzymatic test on isolated enzyme).
MetAP2 Enzymatic Screening Test
For the enzymatic test, human MetAP2 protein was obtained from a culture supernatant of insect cells (sf9) infected with MetAP2 recombinant baculovirus.
Before performing the experiment, dialysis of the MetAP2 supernatant is performed over 24 hours at 4° C. in a buffer (10 mM Hepes, 100 mM KCl, 10% glycerol, pH 7.4) in the presence of EDTA (1 mM) over the first 12 hours.
The dialysis supernatant is recovered and manganese, used as cofactor, is added to a final concentration of 300 μM.
The enzymatic test is a test in two steps.
Consequently, the second step consists in reacting the peptides cleaved in the preceding step with a second peptidase in order to release the chromophore.

T1 sequence (P50579 whole entry): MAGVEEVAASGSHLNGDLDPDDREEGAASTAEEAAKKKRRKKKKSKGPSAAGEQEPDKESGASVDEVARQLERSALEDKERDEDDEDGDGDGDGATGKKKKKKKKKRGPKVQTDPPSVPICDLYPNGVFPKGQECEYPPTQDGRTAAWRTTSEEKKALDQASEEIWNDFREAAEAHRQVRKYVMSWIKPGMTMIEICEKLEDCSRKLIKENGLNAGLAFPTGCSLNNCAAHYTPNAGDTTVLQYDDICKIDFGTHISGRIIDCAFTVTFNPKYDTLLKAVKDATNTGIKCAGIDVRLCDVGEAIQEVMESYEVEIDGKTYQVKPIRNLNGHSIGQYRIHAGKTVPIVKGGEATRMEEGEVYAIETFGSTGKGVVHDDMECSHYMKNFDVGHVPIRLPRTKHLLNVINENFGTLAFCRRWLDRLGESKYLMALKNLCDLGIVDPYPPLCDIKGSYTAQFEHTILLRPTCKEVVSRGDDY

inhibition at 0.1 µM [%] | SMILES
77 | CCn1c(=O)c2cn[nH]c2c2ccc(-c3ccc(N4CCNCC4)cc3)cc21 [Compound 10, 5-ethyl-7-(4-piperazin-1-ylphenyl)-1,5-dihydro-4H-pyrazolo[4,3-c]quinolin-4-one]
48 | CC(=O)Nc1ncc(C)cc1-c1ccc2c3[nH]ncc3c(=O)n(CC(F)(F)F)c2c1 [Compound 130, N-{5-methyl-3-[4-oxo-5-(2,2,2-trifluoroethyl)-4,5-dihydro-1H-pyrazolo[4,3-c]quinolin-7-yl]pyrid-2-yl}acetamide]
67 | CCn1c(=O)c2cn[nH]c2c2ccc(-c3cc(OC)ccc3F)cc21 [Compound 28, 5-ethyl-7-(2-fluoro-5-methoxyphenyl)-1,5-dihydro-4H-pyrazolo[4,3-c]quinolin-4-one]
44 | COc1ccc(-c2ccc3c4[nH]ncc4c(=O)n(CC(F)(F)F)c3c2)c(C)n1 [Compound 138, 7-(6-methoxy-2-methylpyrid-3-yl)-5-(2,2,2-trifluoroethyl)-1,5-dihydro-4H-pyrazolo[4,3-c]quinolin-4-one]
46 | O=c1c2cn[nH]c2c2ccc(-c3ccccc3CCO)cc2n1CC(F)(F)F [Compound 131, 7-[2-(2-hydroxy-ethyl)phenyl]-5-(2,2,2-trifluoroethyl)-1,5-dihydro-4H-pyrazolo[4,3-c]quinolin-4-one]
45 | CCN(CC)S(=O)(=O)c1ccccc1-c1ccc2c3[nH]ncc3c(=O)n(CC(F)(F)F)c2c1 [Compound 136, N,N-diethyl-2-[4-oxo-5-(2,2,2-trifluoroethyl)-4,5-dihydro-1H-pyrazolo[4,3-c]quinolin-7-yl]benzenesulfonamide]
75 | CCn1c(=O)c2cn[nH]c2c2ccc(-c3ccc(C(=O)NCCN(C)C)cc3)cc21 [Compound 13, N-(2-dimethylaminoethyl)-4-(5-ethyl-4-oxo-4,5-dihydro-1H-pyrazolo[4,3-c]quinolin-7-yl)benzamide]
41 | CC(=O)NCc1ccccc1-c1ccc2c3[nH]ncc3c(=O)n(CC(F)(F)F)c2c1 [Compound 151, N-{2-[4-oxo-5-(2,2,2-trifluoroethyl)-4,5-dihydro-1H-pyrazolo[4,3-c]quinolin-7-yl]benzyl}acetamide]
67 | CCn1c(=O)c2cn[nH]c2c2ccc(-c3ccc(C(=O)N4CCOCC4)c(Cl)c3)cc21 [Compound 29, 7-[3-chloro-4-(morpholine-4-carbonyl)phenyl]-5-ethyl-1,5-dihydro-4H-pyrazolo[4,3-c]quinolin-4-one]
43 | O=c1c2cn[nH]c2c2ccc(-c3cccc(Cl)c3O)cc2n1CC(F)(F)F [Compound 53, 7-(3-chloro-2-hydroxyphenyl)-5-(2,2,2-trifluoroethyl)-1,5-dihydro-4H-pyrazolo[4,3-c]quinolin-4-one]
41 | O=c1c2cn[nH]c2c2ccc(-c3cccc(CO)n3)cc2n1CC(F)(F)F [Compound 154, 7-(6-hydroxymethylpyrid-2-yl)-5-(2,2,2-trifluoroethyl)-1,5-dihydro-4H-pyrazolo[4,3-c]quinolin-4-one]
42 | CCc1nc(-c2ccccc2-c2ccc3c4[nH]ncc4c(=O)n(CC(F)(F)F)c3c2)no1 [Compound 150, 7-[2-(5-ethyl-[1,2,4]oxadiazol-3-yl)phenyl]-5-(2,2,2-trifluoroethyl)-1,5-dihydro-4H-pyrazolo[4,3-c]quinolin-4-one]
62 | CCn1c(=O)c2cn[nH]c2c2ccc(-c3ccc4[nH]ncc4c3)cc21 [Compound 34, 5-ethyl-7-(1H-indazol-5-yl)-1,5-dihydro-4H-pyrazolo[4,3-c]quinolin-4-one]
42 | O=c1c2cn[nH]c2c2ccc(-c3ccccc3-c3cnco3)cc2n1CC(F)(F)F [Compound 148, 7-(2-oxazol-5-ylphenyl)-5-(2,2,2-trifluoroethyl)-1,5-dihydro-4H-pyrazolo[4,3-c]quinolin-4-one]
40 | COc1cc(-c2ccc3c4[nH]ncc4c(=O)n(CC(F)(F)F)c3c2)ccn1 [Compound 158, 7-(2-methoxypyrid-4-yl)-5-(2,2,2-trifluoroethyl)-1,5-dihydro-4H-pyrazolo[4,3-c]quinolin-4-one]
41 | O=c1c2cn[nH]c2c2ccc(-c3ccc(CO)cn3)cc2n1CC(F)(F)F [Compound 157, 7-(5-hydroxymethylpyrid-2-yl)-5-(2,2,2-trifluoroethyl)-1,5-dihydro-4H-pyrazolo[4,3-c]quinolin-4-one]
67 | CCn1c(=O)c2cn[nH]c2c2ccc(-c3ccc(F)c(C(=O)NC)c3)cc21 [Compound 27, 5-(5-ethyl-4-oxo-4,5-dihydro-1H-pyrazolo[4,3-c]quinolin-7-yl)-2-fluoro-N-methylbenzamide]

inhibition at 0.1 µM [%] | SMILES
40 | O=c1c2cn[nH]c2c2ccc(-c3cccc(O)c3)cc2n1CC(F)(F)F [Compound 40, 7-(3-hydroxyphenyl)-5-(2,2,2-trifluoroethyl)-1,5-dihydro-4H-pyrazolo[4,3-c]quinolin-4-one]
42 | COc1ncc(-c2ccc3c4[nH]ncc4c(=O)n(CC(F)(F)F)c3c2)c(N(C)C)n1 [Compound 149, 7-(4-dimethylamino-2-methoxypyrimidin-5-yl)-5-(2,2,2-trifluoroethyl)-1,5-dihydro-4H-pyrazolo[4,3-c]quinolin-4-one]
44 | O=C(c1ccc(-c2ccc3c4[nH]ncc4c(=O)n(CC(F)(F)F)c3c2)cn1)N1CCOCC1 [Compound 141, 7-[6-(morpholine-4-carbonyl)pyrid-3-yl]-5-(2,2,2-trifluoroethyl)-1,5-dihydro-4H-pyrazolo[4,3-c]quinolin-4-one]
45 | COc1ccc(-c2ccc3c4[nH]ncc4c(=O)n(CC(F)(F)F)c3c2)c(CO)c1 [Compound 49, 7-(2-hydroxymethyl-4-methoxyphenyl)-5-(2,2,2-trifluoroethyl)-1,5-dihydro-4H-pyrazolo[4,3-c]quinolin-4-one]
78 | CCn1c(=O)c2cn[nH]c2c2ccc(-c3ccc(C(=O)NCCCN(C)C)cc3)cc21 [Compound 9, N-(3-dimethylaminopropyl)-4-(5-ethyl-4-oxo-4,5-dihydro-1H-pyrazolo[4,3-c]quinolin-7-yl)benzamide]
41 | N#Cc1cccc(-c2ccc3c4[nH]ncc4c(=O)n(CC(F)(F)F)c3c2)n1 [Compound 153, 6-[4-oxo-5-(2,2,2-trifluoroethyl)-4,5-dihydro-1H-pyrazolo[4,3-c]quinolin-7-yl]pyridine-2-carbonitrile]
45 | Cc1cc(N)ncc1-c1ccc2c3[nH]ncc3c(=O)n(CC(F)(F)F)c2c1 [Compound 137, 7-(6-amino-4-methylpyrid-3-yl)-5-(2,2,2-trifluoroethyl)-1,5-dihydro-4H-pyrazolo[4,3-c]quinolin-4-one]
43 | COC(=O)Cc1ccccc1-c1ccc2c3[nH]ncc3c(=O)n(CC(F)(F)F)c2c1 [Compound 144, methyl {2-[4-oxo-5-(2,2,2-trifluoroethyl)-4,5-dihydro-1H-pyrazolo[4,3-c]quinolin-7-yl]phenyl}acetate]
42 | CCC(=O)Nc1ccc(-c2ccc3c4[nH]ncc4c(=O)n(CC(F)(F)F)c3c2)c(C)n1 [Compound 147, N-{6-methyl-5-[4-oxo-5-(2,2,2-trifluoroethyl)-4,5-dihydro-1H-pyrazolo[4,3-c]quinolin-7-yl]pyrid-2-yl}propionamide]
60 | CCn1c(=O)c2cn[nH]c2c2ccc(-c3cccc(C(=O)NCCN(C)C)c3)cc21 [Compound 37, N-(2-dimethylaminoethyl)-3-(5-ethyl-4-oxo-4,5-dihydro-1H-pyrazolo[4,3-c]quinolin-7-yl)benzamide]
41 | O=c1c2cn[nH]c2c2ccc(-c3ccc(C(O)c4ccccc4)cn3)cc2n1CC(F)(F)F (stereo not shown) [Compound 152, 7-[5-(hydroxyphenylmethyl)pyrid-2-yl]-5-(2,2,2-trifluoroethyl)-1,5-dihydro-4H-pyrazolo[4,3-c]quinolin-4-one]
61 | CCn1c(=O)c2cn[nH]c2c2ccc(-c3ccc(F)c(C(N)=O)c3)cc21 [Compound 36, 5-(5-ethyl-4-oxo-4,5-dihydro-1H-pyrazolo[4,3-c]quinolin-7-yl)-2-fluoro-benzamide]
62 | CCn1c(=O)c2cn[nH]c2c2ccc(-c3ccc(C(N)=O)c(Cl)c3)cc21 [Compound 33, 2-chloro-4-(5-ethyl-4-oxo-4,5-dihydro-1H-pyrazolo[4,3-c]quinolin-7-yl)benzamide]
40 | COC(=O)c1ccc(-c2ccc3c4[nH]ncc4c(=O)n(CC(F)(F)F)c3c2)c(N)c1 [Compound 55, methyl 3-amino-4-[4-oxo-5-(2,2,2-trifluoroethyl)-4,5-dihydro-1H-pyrazolo[4,3-c]quinolin-7-yl]benzoate]
41 | COc1ccc(-c2ccc3c4[nH]ncc4c(=O)n(CC(F)(F)F)c3c2)cn1 [Compound 128, 7-(6-methoxypyrid-3-yl)-5-(2,2,2-trifluoroethyl)-1,5-dihydro-4H-pyrazolo[4,3-c]quinolin-4-one]
40 | O=c1c2cn[nH]c2c2ccc(-c3ccnc(Cl)c3F)cc2n1CC(F)(F)F [Compound 41, 7-(2-chloro-3-fluoropyrid-4-yl)-5-(2,2,2-trifluoroethyl)-1,5-dihydro-4H-pyrazolo[4,3-c]quinolin-4-one]
42 | CCCc1ncncc1-c1ccc2c3[nH]ncc3c(=O)n(CC(F)(F)F)c2c1 [Compound 146, 7-(4-propylpyrimidin-5-yl)-5-(2,2,2-trifluoroethyl)-1,5-dihydro-4H-pyrazolo[4,3-c]quinolin-4-one]
